Values of other authors as cited in publication PMC6222787, “Anti-Inflammatory Activities of Compounds Isolated from the Rhizome of Anemarrhena asphodeloides” (Molecules : A Journal of Synthetic Chemistry and Natural …, 2018).

Test system: scopolamine-induced cognition deficits
Design: method as in PMID 27444169
Conditions: mice; cited from earlier work

## C[C@@H](CC[C@@]1(O)O[C@H]2C[C@H]3[C@@H]4CC[C@@H]5C[C@@H](O[C@@H]6O[C@H](CO)[C@H](O)[C@H](O)[C@H]6O[C@@H]6O[C@H](CO)[C@@H](O)[C@H](O)[C@H]6O)CC[C@]5(C)[C@H]4CC[C@]3(C)[C@H]2[C@@H]1C)CO[C@@H]1O[C@H](CO)[C@@H](O)[C@H](O)[C@H]1O [Timosaponin BII]
  effect on scopolamine-induced cognition deficits: ameliorate scopolamine-induced cognition deficits
